Calls of active or inactive are those of the source. No cut-off for these calls is given here.
Tests used:
Trypanosoma brucei = assay: Inhibition of Trypanosoma brucei AdoMetDC assessed as ratio of Kinact to Ki(apparent)
[1] = test system: Trypanosoma brucei rhodesiense; assay: Antitrypanosomal activity against Trypanosoma brucei rhodesiense; type: functional, organism-based
[2] = test system: Trypanosoma brucei brucei; assay: Antitrypanosomal activity against Trypanosoma brucei brucei; type: functional, organism-based
[3] = Distribution coefficient, log D at pH 7.4 by shake flask method; type: physicochemical; conditions: octanol/water
[4] = test system: Trypanosoma brucei brucei; assay: Antitrypanosomal activity against Trypanosoma brucei brucei infected mouse assessed as reduction in parasitemia; type: functional, organism-based
[5] = Cmax in blood of single dose ip administered mouse; type: ADME, organism-based; set-up: route intraperitoneal
[6] = Half life in single dose ip administered mouse; type: ADME, organism-based; conditions: in vivo
[7] = AUC in brain of single dose ip administered mouse; type: ADME, organism-based
[8] = Cmax in brain of single dose ip administered mouse; type: ADME, organism-based; set-up: route intraperitoneal
[9] = AUC in blood of single dose ip administered mouse; type: ADME, organism-based

Q: Which Ratio (Trypanosoma brucei) does the source give for `CN(C/C=C\CN)C[C@H]1O[C@@H](n2cnc3c(N)nc(Cl)nc32)[C@H](O)[C@@H]1O` here?
A: 0.02

Q: What about the IC50 [1] of the same compound?
A: 1.7 µM

Q: And the IC50 [2]?
A: 7.27 µM

Q: With `CCCc1nc2c(N)ncnc2n1[C@@H]1O[C@H](CN(C)C/C=C\CN)[C@@H](O)[C@H]1O` as the compound, how does the IC50 [2] read?
A: 11.1 µM

Q: What does the source list for `CN(C/C=C\CN)C[C@H]1O[C@@H](n2cnc3c(N)ncnc32)[C@H](O)[C@@H]1O`?
A: Ratio (Trypanosoma brucei): 1.5; logD [3]: -1.8; IC50 [1]: 0.011 µM; IC50 [2]: 0.21 µM; Activity [4]: Active

Q: For `Cc1nc(N)c2ncn([C@@H]3O[C@H](CN(C)C/C=C\CN)[C@@H](O)[C@H]3O)c2n1`, which IC50 [2] is on record?
A: > 14 µM

Q: For `CCc1nc2c(N)ncnc2n1[C@@H]1O[C@H](CN(C)C/C=C\CN)[C@@H](O)[C@H]1O`, which IC50 [2] is on record?
A: 0.9 µM

Q: With `Cc1nc2c(N)ncnc2n1[C@@H]1O[C@H](CN(C)C/C=C\CN)[C@@H](O)[C@H]1O` as the compound, how does the Ratio (Trypanosoma brucei) read?
A: 7.78

Q: What about the IC50 [1] of the same compound?
A: 0.001 µM

Q: And the IC50 [2]?
A: 0.027 µM

Q: What about the Cmax [5] of the same compound?
A: 36900 ng/mL

Q: What about the half-life [6] of the same compound?
A: 7.43 h

Q: What about the Activity [4] of the same compound?
A: Active

Q: And the AUC [7]?
A: 1300 ng·h/mL

Q: And the Cmax [8]?
A: 660 ng/mL

Q: What about the AUC [9] of the same compound?
A: 17900 ng·h/mL

Q: Which Ratio (Trypanosoma brucei) does the source give for `CN(C/C=C\CN)C[C@H]1O[C@@H](n2cnc3c(N)ncnc32)[C@H](F)[C@@H]1O` here?
A: 0.19

Q: What about the IC50 [1] of the same compound?
A: 1.4 µM

Q: What about the IC50 [2] of the same compound?
A: > 14 µM

Q: Which results are given for `CN(C/C=C\CN)C[C@H]1O[C@@H](n2cnc3c(N)ncnc32)[C@@H](F)[C@@H]1O`?
A: Ratio (Trypanosoma brucei): 0.19; IC50 [1]: 2.6 µM; IC50 [2]: > 14 µM

From ChEMBL document CHEMBL1136916, “Discovery of new S-adenosylmethionine decarboxylase inhibitors for the treatment of Human African Trypanosomiasis (HAT)” (Bioorg Med Chem Lett, 2009)
